Entries after “also recorded” stand apart in the source; their conditions may differ.
How the values were obtained:
[1] = test system: human psoriatic fibroblasts; test: Inhibition of human psoriatic fibroblast proliferation; format: cell-based
Method: PTX and PPF, alone as well as PTX in combination with other drugs were tested.
Human psoriatic fibroblasts were obtained from skin biopsies of 5 individuals with plaque psoriasis. Cells in the 3-7th passages were used for the experiments. Human psoriatic fibroblasts (4×10^3 -6×10^3 cells) were added in 24-well plates and cultured in Dulbecco's Modified Eagle's Medium (DMEM) supplemented with 10% fetal calf serum, 2 mM L-glutamine, 100 u/ml penicillin, 100 μg/ml streptomycin (DMEM+) at 5% CO2 and 95% humidity at 37° C.
After 3 days, medium was replaced with fresh DMEM+(control) or with medium containing various concentrations of compounds alone or in combination with pentoxifylline and incubation was continued for additional 3 days. Stock solutions (10^-1 -10^-2 M) of the compounds tested were made in ethanol. For these compounds special control (DMEM+ with 1% ethanol) was made. The compounds tested together with pentoxifylline were 3-heptanone, 3,3-dimethylbutyric acid, lipoic acid, 1,25-dihydroxyvitamin D3 betamethasone dipropionate and hydrocortisone-17-butyrate.
On the last day of experiments, the medium was aspirated and the cells were obtained by trypsinization. The number of cells in each well was counted by the use of an hemocytometer.
The percentage of inhibition of fibroblast proliferation was calculated according to the formula: [formula] and the results are shown in Tables 3 and 4.

[2] = test system: human psoriatic skin transplants; test: Topical treatment of human psoriatic skin transplanted to nude mice (epidermal thickness / acanthosis); format: in vivo, human skin on outbred Balb/C nude mice; details: for Average Improvement (decrease in epidermal thickness) / % Improvement (Decrease in Thickness): 7 days; for Average Improvement (decrease in epidermal thickness): placebo 5%
From the text: Human psoriatic skin from psoriatic patients was transplanted to nude mice essentially according to the method of G. Kreuger et al., Prog. in Dermatol. […] The donors had stable plaque type psoriasis for at least one year preceding biopsy and had not received systemic anti-psoriatic therapy for the 4 weeks preceding biopsy. They had also not received topical therapy or U.V. therapy for the two weeks preceding biopsy. […] In this method the area (A) of the psoriasis in four main body parts (head (H), trunk (T), upper extremities (U) and lower extremities (L)) is assigned a value from 0-6 depending on the extent of psoriasis where O reflects no involvement and 6 reflects 90-100% involvement. The severity of the lesion is assessed based on three parameters: Erythema (E), Desquamation (scaling) (D) and Infiltration (I). The severity of each of these parameters is measured on a scale of 0-4 where 0 is no involvement and 4 is very sever. The total severity score is calculated according to the following formula: […]
Split thickness biopsies of nonpustular psoriatic human tissue, 4×5 cm and 0.4 mm thick were obtained from the edge of established plaques from various donor patients. […] The grafts were allowed to heal for one week prior to topical application of the test preparations.
Outbred Balb/C nude mice, 2 to 3 months of age were used in this study. The mice were obtained from the pathogen free animal breeding facility at the University of Tel Aviv (Israel) and were raised in the pathogen-free animal facility at the Faculty of Medicine, Technion-Israel Institute of Technology, Haifa, Israel.
On the day following the end of treatment the severity of the psoriatic lesion was assessed and then the animals were sacrificed and the entire graft was excised and divided into two equal sections. One section was used to assess changes in the rate of proliferation by autoradiography (tritiated thymidine incorporation) while the other section was sectioned for microscopic histological assessment, including acanthosis and parakeratosis.
In another series of experiments, human psoriatic skin of various severities was transplanted on each of 28 nude mice. The graft area was treated with various preparations as described above.
The treatments were applied as creams and were administered as described above.

psoriasis lesions = test: Clinical trial in psoriasis, 5% dyphylline cream vs placebo, PASI; format: in vivo, human patients; details: for % Decrease in PASI: 5% dyphylline cream, n = 33
Method: Two similar plaque areas of psoriasis (i.e. both legs or forearms), were selected for treatment in each patient. In each patient one area on one side of the body was treated with 2% pentoxifylline formulated as in Example 1 and the other area on the other side of the body was treated with placebo cream formulated identically but without the pentoxifylline. The cream (formulation A in Example 1) was applied by the patient twice daily.
The dermatological assessment was performed as follows. The dermatologist measured the area of the lesion in cm^2. The severity of each lesion was evaluated by grading erythema, scaling and thickness on a 0-4 scale where 0=none, 1=slight, 2=moderate, 3=severe and 4=exceptionally severe.
Based on these measurements the Psoriasis Area Severity Index (PASI) was calculated for each of the 2 lesions on each patient as follows:
PASI=Area x (Erythema+Thickness+Scaling)
In a different series of tests 5% dyphylline cream was applied in the same vehicle that had been used to apply PTX cream. Thus the formulation used in this series of tests was the same as in Example 1 with the exception that 5% dyphylline was used in place of 2% pentoxifylline. The design of the trial was similar in all respects to the clinical trial of PTX described in Example 5 except that the number of patients was 33.

[3] = test system: human peripheral blood mononuclear cells (lymphocytes); test: Inhibition of the mitogenic (PHA) stimulation of human lymphocytes (PBMC), [3H]thymidine; format: cell-based; details: for inhibition at 1000 µM / inhibition at 300 µM: Homo sapiens, Lymphocyte, lymphocytes from healthy volunteers, read-out: net inhibitory effect on the mitogenic stimulation of human lymphocytes; for inhibition at 1000 µM: 1 × 10^-3 M; for inhibition at 300 µM: 3 × 10^-4 M
Method: Buffy coats from the Beilinson Medical Center Blood Bank or 20 mL samples of heparinized venous blood from healthy or atopic donors were used as a source for human peripheral blood mononuclear (PBM) cells. PBM cells were separated by Ficoll-Hypaque density gradient centrifugation. […] The nonadhering cells were stirred gently and carefully collected.
PHA (1 μg/mL), indomethacin (5 μg/mL) and various xanthine derivatives were added at initiation of culture. Indomethacin was dissolved in ethanol. […] [methyl-^3 H]Thymidine (1 μCi/well) was added at 68 h, and the cells were harvested 4 h later using an automated cell harvester (Dynatech, Alexandria, Va.). Unless otherwise stated, all cultures were performed in triplicate.

[4] = test system: peripheral blood mononuclear cells (PBMC); details: Ravid et al. 1990; cited from earlier work
[5] = additional drug 10^-7 M with PTX 10^-4 M
[6] = additional drug 10^-3 M with PTX 10^-3 M
[7] = additional drug 10^-3 M with PTX 10^-4 M
[8] = additional drug 10^-4 M with PTX 10^-3 M
[9] = additional drug 10^-4 M with PTX 10^-4 M

C=C1/C(=C\C=C2/CCC[C@]3(C)[C@@H]([C@H](C)CCCC(C)(C)O)CC[C@@H]23)C[C@@H](O)C[C@@H]1O [1,25(OH)2 D3, 1,25-dihydroxyvitamin D3]
% Inhibition of Proliferation [1, 5]: 49.5%

CCCCCC(C)=O [2-Heptanone]
% Inhibition of Proliferation [1, 6]: 45% | % Inhibition of Proliferation [1, 7]: 18.6% | % Inhibition of Proliferation [1, 8]: 26.4% | % Inhibition of Proliferation [1, 9]: 21.0% | % Inhibition of Proliferation ([1]; additional drug 10^-5 M with PTX 10^-3 M): 21.3%

CC(C)(C)CC(=O)O [3,3dimethyl butyricacid, 3,3-dimethylbutyric acid]
% Inhibition of Proliferation [1, 6]: 21% | % Inhibition of Proliferation [1, 7]: 36.3% | % Inhibition of Proliferation [1, 8]: 17.2% | % Inhibition of Proliferation [1, 9]: 19.3%

CCC(=O)OCC(=O)[C@@]1(OC(=O)CC)[C@@H](C)C[C@H]2[C@@H]3CCC4=CC(=O)C=C[C@]4(C)[C@@]3(F)[C@@H](O)C[C@@]21C [Betamethasone dipropionate, betamethasone dipropionate]
% Inhibition of Proliferation [1, 8]: 77.5% | % Inhibition of Proliferation [1, 9]: 55.8% | % Inhibition of Proliferation [1, 5]: 43.1%

CCC(=O)O[C@]1(C(=O)CCl)[C@@H](C)C[C@H]2[C@@H]3CCC4=CC(=O)C=C[C@]4(C)[C@@]3(F)[C@@H](O)C[C@@]21C [Clobetasol propionate]
Average Improvement (decrease in epidermal thickness) ([2]; 0.05% clobetasol propionate (Dermovate)): 35% | % Improvement (Decrease in Thickness) ([2]; 0.05% clobetasol propionate, donor patient 1 (PASI 3.2)): 45% | % Improvement (Decrease in Thickness) ([2]; 0.05% clobetasol propionate, donor patient 3 (PASI 7.6)): 41% | % Improvement (Decrease in Thickness) ([2]; 0.05% clobetasol propionate, donor patient 4 (PASI 17.6)): 55% | % Improvement (Decrease in Thickness) ([2]; 0.05% clobetasol propionate, donor patient 5 (PASI 31.3)): 0% | Epidermal Thickness (Acanthosis) after 7 days treatment ([2]; 0.05% clobetasol propionate, donor patient 1 (PASI 3.2), before treatment 44 μm): 24 μm | Epidermal Thickness (Acanthosis) after 7 days treatment ([2]; 0.05% clobetasol propionate, donor patient 3 (PASI 7.6), before treatment 46 μm): 27 μm | Epidermal Thickness (Acanthosis) after 7 days treatment ([2]; 0.05% clobetasol propionate, donor patient 4 (PASI 17.6), before treatment 54 μm): 24 μm | Epidermal Thickness (Acanthosis) after 7 days treatment ([2]; 0.05% clobetasol propionate, donor patient 5 (PASI 31.3), before treatment 35 μm): 47 μm

Cn1c(=O)c2c(ncn2CC(O)CO)n(C)c1=O (centres unmarked) [Dyphylline]
effectiveness of treatment of psoriasis (in words) (psoriasis lesions; 5% dyphylline cream vs placebo): nearly ineffective with respect to placebo; also recorded: virtually inactive in the treatment of psoriasis | % Decrease in PASI (psoriasis lesions; 1 week, placebo 12.4): 12.6% | % Decrease in PASI (psoriasis lesions; 2 weeks, placebo 30.0): 25.9% | % Decrease in PASI (psoriasis lesions; 4 weeks, placebo 21.5): 28.0% | % Decrease in PASI (psoriasis lesions; 6 weeks, placebo 15.6): 26.5% | SUCCESS RATIO (decrease of at least 15% in epidermal thickness) ([2]; 8% dyphylline, 7 days topical, placebo 0/6): 0/2 | % Improvement (Decrease in Thickness) ([2]; 8% dyphylline, donor patient 1 (PASI 3.2)): 0% | % Improvement (Decrease in Thickness) ([2]; 8% dyphylline, donor patient 5 (PASI 31.3)): 0% | Average Improvement (decrease in epidermal thickness) ([2]; 8% dyphylline): 0% | Epidermal Thickness (Acanthosis) after 7 days treatment ([2]; 8% dyphylline, donor patient 1 (PASI 3.2), before treatment 44 μm): 65 μm | Epidermal Thickness (Acanthosis) after 7 days treatment ([2]; 8% dyphylline, donor patient 5 (PASI 31.3), before treatment 35 μm): 45 μm | effectiveness in treating psoriasis (in words) ([2]; experiment of Table 1, transplanted skin): virtually inactive | effectiveness in treating psoriasis (in words) ([2]; experiment of Table 2, 28 nude mice): inactive | inhibition at 1000 µM [3]: 24% | inhibition at 300 µM [3]: 12%

O=C(O)CCCCC1CCSS1 (centres unmarked) [Lipoicacid, lipoic acid]
% Inhibition of Proliferation [1, 8]: 50.2% | % Inhibition of Proliferation [1, 9]: 14.5%

CCCn1cnc2c1c(=O)n(CCCCC(C)=O)c(=O)n2C [Propentofylline, 3-methyl-7-propyl-1-(5-oxohexyl)-xanthine]
inhibition at 1000 µM ([1]; Homo sapiens, Fibroblast, compound alone, 10^-3 M, Table 4): 39 ± 7% | inhibition at 100 µM ([1]; Homo sapiens, Fibroblast, compound alone, 10^-4 M, Table 4): 20.3 ± 6.6% | inhibition at 1000 µM [3]: 89% | inhibition at 300 µM [3]: 88% | inhibition of the mitogenic stimulation compared with the other xanthine derivatives (in words) ([3]; vs theophylline and diphylline, healthy volunteers): inhibited the mitogenic stimulation to a far greater effect than the other xanthine derivatives

Cn1c(=O)c2[nH]cnc2n(C)c1=O [Theophylline]
inhibition at 1000 µM [3]: 59% | inhibition at 300 µM [3]: 37%

C[C@@H]1C[C@H]2[C@@H]3CCC4=CC(=O)C=C[C@]4(C)[C@@]3(F)[C@@H](O)C[C@]2(C)[C@@]1(O)C(=O)CO [dexamethasone]
inhibition of mitogenic stimulation of PBMC (in words) [4]: inhibited the mitogenic stimulation of PBMC
